Results: the RepoRT retention time repository (doi:10.1038/s41586-021-03707-9)

experiment: RP, Waters ACQUITY UPLC HSS C18, 100 × 2.1 mm, 1.7 µm, 40 °C, 0.35 mL/min, estimated dead time 0.63 min; A: water + 0.1% formic acid; B: methanol + 0.1% formic acid; gradient (min/%B) 0/0.5 4/70 4.5/98 5.4/98; settings: stereoisomer not certain

Structure (SMILES)	LC retention time [min]
CCCCCCCCCC(=O)OC(CC(=O)[O-])C[N+](C)(C)C (stereo unspecified)	5.25
O=P(O)(O)OC(CO)CO	0.815
NC1CCSC1=O (stereo unspecified)	0.873
C[N+](C)(C)[O-]	0.766
CNC(CC(=O)O)C(=O)O (stereo unspecified)	0.772
CC(O)(CC(=O)O)CC(=O)O	1.9
CC(CCC(=O)O)C(=O)O (stereo unspecified)	2.97
NC(CCC(=O)NC(CS)C(=O)NCC(=O)O)C(=O)O (stereo unspecified)	3.37
NCC(=O)CCC(=O)O	0.768
CC(=O)OCC1OC(OC(C)=O)C(OC(C)=O)C(OC(C)=O)C1OC(C)=O (stereo unspecified)	4.5
CC(=CC(=O)O)CC(=O)O	3.07
O=C(O)C(O)C(O)C(O)C(=O)CO (stereo unspecified)	0.808
NCC(O)c1ccc(O)cc1 (stereo unspecified)	0.904
NC(CCOC(=O)CCC(=O)O)C(=O)O (stereo unspecified)	1.36
CCCC(NC(C)C(=O)N1C(C(=O)O)CC2CCCCC21)C(=O)OCC (stereo unspecified)	4.66
CC(CCC(=O)O)CC(=O)O (stereo unspecified)	3.46
CNCCc1ccccc1	2.61
O=CNCC(=O)O	0.919
OCC(O)C(O)C(OC1OC(CO)C(O)C(O)C1O)C(O)CO (stereo unspecified)	4.47
NC(=O)NC(NC(N)=O)C(=O)O	0.777
CC(=O)NC(CC(=O)O)C(=O)O (stereo unspecified)	1.23
O=P(O)(O)OCC1OC(O)C(O)C(O)C1O (stereo unspecified)	0.783

Structure (SMILES)	LC retention time [min]
CCCC(=O)NCC(=O)O	2.36
CCOC(=O)C(=O)C(C)C(=O)OCC (stereo unspecified)	4.56
O=C(O)CCCCCCCC(=O)O	4.56
O=C(O)CCCCCC(=O)O	3.46
O=C(O)CC(O)(CC(=O)O)C(=O)O	1.43
CN=C(N)N	0.776
CCC1CCC(=O)O1 (stereo unspecified)	3.33
CC(CC(=O)O)C(=O)O (stereo unspecified)	2.58
NC(CCS)C(=O)O (stereo unspecified)	0.907
O=C(O)CCCCCCCCC(=O)O	4.96
O=C(O)CCCCC(=O)O	2.83
CC(=O)NC(CCC(=O)O)C(=O)O (stereo unspecified)	1.63
O=C(O)C=C(CC(=O)O)C(=O)O	1.84
CCC(=O)NCC(=O)O	1.7
CC12CC3CC(C)(C1)CC(N)(C3)C2	4.42
CN(C)C(=N)N=C(N)N	0.844
NC(N)=S	0.847
COc1ccc(C=O)cc1	0.897
O=C(O)CCO	0.782
CCC(=O)OC(CC(=O)[O-])C[N+](C)(C)C (stereo unspecified)	1.82
NC(CCC(=O)O)C(=O)O (stereo unspecified)	0.764
NC(CSCC(=O)O)C(=O)O (stereo unspecified)	0.873

Structure (SMILES)	LC retention time [min]
CC(CC(=O)O)CC(=O)O	3.02
O=C(O)CCCC(O)C(=O)O (stereo unspecified)	1.89
CC1NCCc2cc(O)c(O)cc21 (stereo unspecified)	1.61
CC(=O)CC(=O)CCC(=O)O	3.3
CCC1OC(=O)C(C)C(OC2CC(C)(OC)C(O)C(C)O2)C(C)C(OC2OC(C)CC(N(C)C)C2O)C(C)(O)CC(C)C(=O)C(C)C(O)C1(C)O (stereo unspecified)	4.82
NC(COP(=O)(O)O)C(=O)O (stereo unspecified)	0.759
NC(CS(=O)(=O)O)C(=O)O (stereo unspecified)	0.773
NC12CC3CC(CC(C3)C1)C2	3.49
NC(=O)Cc1ccccc1	3.38
CC(C)CC(O)C(=O)O (stereo unspecified)	3.94
CCOC(=O)c1cncn1C(C)c1ccccc1 (stereo unspecified)	5.14
CCOC(=O)CCC(=O)OCC	4.61
O=C(O)CC=CCC(=O)O	2.67
CNC(CCC(=O)O)C(=O)O (stereo unspecified)	0.817
NC(N)=NC(CC(=O)O)C(=O)O (stereo unspecified)	0.802
O=C(O)CC(O)C(=O)O (stereo unspecified)	1.92
CC(C(=O)O)C(=O)O	1.87
CN(C)CCc1ccccc1	2.61
OCC1OC(OC2C(CO)OC(O)C(O)C2O)C(O)C(O)C1O (stereo unspecified)	0.801
NC(CS(=O)O)C(=O)O (stereo unspecified)	0.768
CC(=O)OCC[N+](C)(C)C	0.907

Now from value to compound:

LC retention time [min]	Structure (SMILES)
3.23	Cn1c(=O)c2c(ncn2C)n(C)c1=O
4.6	COC(=O)C1=C(C)NC(C)=C(C(=O)OCCN(C)Cc2ccccc2)C1c1cccc([N+](=O)[O-])c1 (stereo unspecified)
0.762	Cc1ncc(C[n+]2csc(CCOP(=O)(O)O)c2C)c(N)n1
5.19	CSc1ccc2c(c1)N(CCC1CCCCN1C)c1ccccc1S2 (stereo unspecified)
1.71	Nc1ncnc2c1ncn2C1OC(CSCCC(N)C(=O)O)C(O)C1O (stereo unspecified)
4.19	O=c1ccc2ccccc2o1
3.87	COc1cc(C=CC(=O)O)ccc1O
3.84	CC(C(=O)O)c1ccc(O)cc1 (stereo unspecified)
1.62	CN1CC(=O)NC1=O
5.02	COc1ccccc1C=CC=O
0.806	NCC(O)c1ccc(O)c(O)c1 (stereo unspecified)
3.7	O=C(O)C(O)Cc1ccccc1 (stereo unspecified)
3.23	COC(=O)c1cccnc1
4.77	CN(C)CCCN1c2ccccc2CCc2ccccc21
3.76	O=C(O)C=Cc1ccc(O)cc1
5.28	COC(=O)C1=C(C)NC(C)=C(C(=O)OC)C1c1ccccc1[N+](=O)[O-]
3.14	CN(C)CCOC(C)(c1ccccc1)c1ccccn1 (stereo unspecified)
3.63	CCc1occc(=O)c1O
1.99	NCc1ccccc1
1.51	O=C(O)c1c[nH]c(=O)[nH]c1=O
2.77	Cc1occc(=O)c1O
2.69	Nc1ccc(C(=O)O)c(O)c1
2.38	Cn1ccc(=O)n(C)c1=O
2.04	CCC1C(=O)OCC1Cc1cncn1C (stereo unspecified)
1.38	O=c1[nH]cnc2nc[nH]c12
2.91	O=Cc1ccc(O)c(O)c1

LC retention time [min]	Structure (SMILES)
1.35	NCCc1ccc(O)c(O)c1
4.59	O=C(O)C=Cc1c[nH]c2ccccc12
4.72	CNCCC(Oc1ccccc1C)c1ccccc1 (stereo unspecified)
4.92	O=C(O)C=Cc1ccccc1
4.61	CC12CCC3c4ccc(O)cc4CCC3C1CC(O)C2O (stereo unspecified)
3.76	O=C1Cc2ccccc2N1
4.3	CCCOC(=O)c1cc(O)c(O)c(O)c1
4.44	CN(C)CCC=C1c2ccccc2COc2ccccc21
0.822	C[N+](C)(C)CCOP(=O)([O-])OP(=O)(O)OCC1OC(n2ccc(N)nc2=O)C(O)C1O (stereo unspecified)
1.42	Nc1ccccc1O
2.25	CC1OC(n2cnc3c(N)ncnc32)C(O)C1O (stereo unspecified)
4.39	O=C(O)C#Cc1ccccc1
1.88	O=C(O)c1cc(O)c(O)c(O)c1
1.16	O=C(O)C=Cc1cnc[nH]1
4.77	OC(CCN1CCCCC1)(c1ccccc1)C1CCCCC1 (stereo unspecified)
0.867	O=C(O)C1(O)CC(O)C(O)C(O)C1 (stereo unspecified)
1.41	O=c1[nH]c(=O)c2ncn(C3OC(COP(=O)(O)O)C(O)C3O)c2[nH]1 (stereo unspecified)
4.53	COc1ccc(C2Sc3ccccc3N(CCN(C)C)C(=O)C2OC(C)=O)cc1 (stereo unspecified)
3.42	O=C(O)CCCCC1SCC2NC(=O)NC21 (stereo unspecified)
1.66	NC(Cc1ccc(O)cc1)C(=O)O (stereo unspecified)
1.72	CN1C(=O)CCC1c1cccnc1 (stereo unspecified)
1.94	O=c1cccc[nH]1
4.85	CN(C)CCC=C1c2ccccc2CCc2ccccc21
0.862	Cn1cnc(=N)c2[nH]cnc21
1.16	O=C1CCNC(=O)N1
3.85	Oc1c[nH]c2ccccc12

LC retention time [min]	Structure (SMILES)
2.19	O=C(O)c1ccccc1O
2.5	Cn1cnc2c1c(=O)[nH]c(=O)n2C
3.03	O=C(C=Cc1ccc(O)c(O)c1)OC1CC(O)(C(=O)O)CC(O)C1O (stereo unspecified)
5.32	CC(=O)OCC(=O)C1(O)CCC2C3CCC4=CC(=O)CCC4(C)C3C(O)CC21C (stereo unspecified)
3.32	O=C(O)c1ccccc1C(=O)O
2.17	Cn1c(=O)[nH]c(=O)c2[nH]cnc21
2.1	Cn1c(=O)[nH]c2[nH]c(=O)[nH]c2c1=O
0.907	NC(=O)c1ccc[n+](C2OC(COP(=O)([O-])O)C(O)C2O)c1 (stereo unspecified)
4.47	CCCc1nc(C)c2c(=O)[nH]c(-c3cc(S(=O)(=O)N4CCN(CC)CC4)ccc3OCC)nn12
1.54	Nc1ccc(O)c(C(=O)O)c1
2.89	CC(=O)NC(Cc1ccc(O)cc1)C(=O)O (stereo unspecified)
1.54	Nc1cccc(C(=O)O)c1O
2.28	Cn1c(=O)[nH]c2nc[nH]c2c1=O
5.31	CC12CCC(=O)C=C1CCC1C2C(O)CC2(C)C(C(=O)CO)CCC12 (stereo unspecified)
4.54	COc1ccc(CCN(C)CCCC(C#N)(c2ccc(OC)c(OC)c2)C(C)C)cc1OC (stereo unspecified)
4.5	Cc1cc2nc3[nH]c(=O)[nH]c(=O)c3nc2cc1C
0.829	Nc1ccc(O)cc1
5.33	CC12CCC(=O)C=C1CCC1C2CCC2(C)C1CCC2(O)C(=O)CO (stereo unspecified)
4.08	O=C(O)c1c[nH]c2ccccc12
3.36	CCN(Cc1ccncc1)C(=O)C(CO)c1ccccc1 (stereo unspecified)
1.88	Nc1nc2c(ncn2CCC(CO)CO)c(=O)[nH]1
2.98	O=C(O)C1OC(Oc2c[nH]c3ccccc23)C(O)C(O)C1O (stereo unspecified)
0.912	Nc1ccn(C2OC(CO)C(OP(=O)(O)O)C2O)c(=O)n1 (stereo unspecified)
5.35	CC(=O)Oc1cc(C)c(OC(C)=O)c2ccccc12
